US20230080054A1 (ILDONG PHARMACEUTICAL CO., LTD., priority 2021, published 2023)

Biological target: T1, human ANO6 (Homo sapiens, UniProt Q4KMQ2)
T1 construct: expressed in transfected cells
T1 sequence (Q4KMQ2 1-931 isoform Q4KMQ2-2): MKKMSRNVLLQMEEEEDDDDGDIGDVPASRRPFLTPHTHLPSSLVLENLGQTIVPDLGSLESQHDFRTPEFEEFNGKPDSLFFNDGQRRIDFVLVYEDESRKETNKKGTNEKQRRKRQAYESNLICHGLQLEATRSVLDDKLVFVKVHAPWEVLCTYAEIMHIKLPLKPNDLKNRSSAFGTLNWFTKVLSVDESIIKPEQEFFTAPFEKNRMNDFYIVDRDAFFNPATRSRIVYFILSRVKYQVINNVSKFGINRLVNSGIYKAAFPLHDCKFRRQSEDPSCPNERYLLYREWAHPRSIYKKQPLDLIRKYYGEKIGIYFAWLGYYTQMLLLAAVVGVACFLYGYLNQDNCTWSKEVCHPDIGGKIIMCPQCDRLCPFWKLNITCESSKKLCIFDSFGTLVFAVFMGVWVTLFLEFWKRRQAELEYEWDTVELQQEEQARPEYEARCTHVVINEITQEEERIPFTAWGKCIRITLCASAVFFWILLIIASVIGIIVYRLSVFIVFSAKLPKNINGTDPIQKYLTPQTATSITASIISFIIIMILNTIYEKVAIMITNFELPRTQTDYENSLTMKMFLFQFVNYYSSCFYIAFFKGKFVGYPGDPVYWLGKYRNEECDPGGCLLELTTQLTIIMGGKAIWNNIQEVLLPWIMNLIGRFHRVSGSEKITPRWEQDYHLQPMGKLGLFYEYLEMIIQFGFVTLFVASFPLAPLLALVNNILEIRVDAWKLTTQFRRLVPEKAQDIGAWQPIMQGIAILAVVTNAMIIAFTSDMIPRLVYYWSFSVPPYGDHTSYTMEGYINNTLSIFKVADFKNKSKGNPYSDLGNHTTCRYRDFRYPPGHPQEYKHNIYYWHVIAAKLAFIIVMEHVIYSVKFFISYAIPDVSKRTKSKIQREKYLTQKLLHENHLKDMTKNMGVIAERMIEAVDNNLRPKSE
Experiment: YFP quenching assay (ANO6 ion channel activity)
Format: cell-based
Conditions: 10 μM ionomycin; for inhibition at 1 µM: test compound 1 μM, read-out: Inhibition Level 1 μM; for inhibition at 30 µM: test compound 30 μM, read-out: Inhibition Level 30 μM
Source text: Example 3: YFP Quenching Assay
1. Materials and Instruments
Ionomycin (Alomonelab cat. #I-700), FLUOstar Omega microplate reader (BMG Labtech, Ortenberg, Germany), and MARS Data Analysis Software (BMG Labtech)
Fisher rat thyroid (FRT) cells stably expressing human ANO6 (GenBank accession no. NP_001191732.1, provided by J. H. Nam, Dongguk University College of Medicine, Korea) and halide sensor mutant YFP-H148Q/I152L/F46L) were constructed and grown in Dulbecco's modified Eagle's medium Nutrient Mixture F-12 (DMEM/F-12) supplemented 10% FBS, 100 units/mL penicillin, 500 μg/mL hygromycin B and 100 μg/mL neomycin.
Fisher rat thyroid (FRT) cells stably expressing human ANO6 and halide sensor mutant YFP (H148Q/I152L/F46L) were seeded in black walled 96 well plates and incubated in a 37° C., 5% CO2 incubator to reach about 100% cell confluency. Then, each well of the 96 well plates were washed for several times with phosphate buffered saline (PBS), and 50 μL of PBS was added to each well. Test compounds (100× in DMSO) were added to each well to be 1% v/v DMSO. After incubation for 10 minutes in 40° C., the 96 well plates were transferred to a plate reader, and YFP fluorescence changed by SCN-introduced into cells through activated ANO6 were measured by the following steps.
(1) YFP fluorescence signals were recorded in every 0.4 seconds.
(2) Basal YFP fluorescence signals were recorded for 1 second.
(3) 140 mM SCN-(50 μL) containing 10 μM ionomycin was injected to each well, and YFP fluorescence signals were recorded.
The inhibitory activity (%) of each of the test compounds was obtained by the following steps.
(1) Background signals were subtracted from recording values, and the resulting values were converted to relative percentages. The values at 0 second were set to be 100%.
(2) Differences between the values at 3.6 seconds and those of at 7.6 seconds were calculated.
(3) In each row of 96 well plate, the inhibitory activity of each of the test compounds was calculated as percentages. The inhibitory activity of a negative control group to which neither compounds nor ionomycin were treated was set to be 100%, and the inhibitory activity of a positive control group to which ionomycin was treated and compounds were not treated was set to be 0%.
(4) The assay was performed in duplicate or triplicate, and the results were averaged.

Compound: O=C(NCc1ccncc1)c1cccc(Nc2ccc(-c3ccccc3)nn2)c1 [Compound 18, 3-[(6-phenylpyridazin-3-yl)amino]-N-[(pyridin-4-yl)methyl]benzamide]
- inhibition at 1 µM: < 30%
- inhibition at 30 µM: 30 to 60%

Compound: O=C(NCc1ccccn1)c1cccc(Nc2ccc(-c3ccccc3)nn2)c1 [Compound 19, 3-[(6-phenylpyridazin-3-yl)amino]-N-[(pyridin-2-yl)methyl]benzamide]
- inhibition at 1 µM: < 30%
- inhibition at 30 µM: ≥ 60%

Compound: O=C(NCc1cccnc1)c1cccc(Nc2ccc(-c3ccccc3)nn2)c1 [Compound 20, 3-[(6-phenylpyridazin-3-yl)amino]-N-[(pyridin-3-yl)methyl]benzamide]
- inhibition at 1 µM: 30 to 60%
- inhibition at 30 µM: ≥ 60%

Compound: O=C(NCCCN1CCCC1)c1cccc(Nc2ccc(-c3ccccc3)nn2)c1 [Compound 21, 3-[(6-phenylpyridazin-3-yl)amino]-N-[3-(pyrrolidin-1-yl)propyl]benzamide]
- inhibition at 1 µM: < 30%
- inhibition at 30 µM: < 30%

Compound: Cc1ccc(CNC(=O)c2ccc(Nc3ccc(-c4ccccc4)nn3)cc2)o1 [Compound 22, N-[(5-methylfuran-2-yl)methyl]-4-[(6-phenylpyridazin-3-yl)amino]benzamide]
- inhibition at 30 µM: < 30%

Compound: Cc1ccc(CNC(=O)c2cccc(Nc3ccc(-c4ccccn4)nn3)c2)o1 [Compound 23, N-[(5-methylfuran-2-yl)methyl]-3-{[6-(pyridin-2-yl)pyridazin-3-yl]amino}benzamide]
- inhibition at 1 µM: < 30%
- inhibition at 30 µM: ≥ 60%

Compound: O=C(NC1COC1)c1cccc(Nc2ccc(-c3ccccc3)nn2)c1 [Compound 26, N-(oxetan-3-yl)-3-[(6-phenylpyridazin-3-yl)amino]benzamide]
- inhibition at 1 µM: 30 to 60%
- inhibition at 30 µM: ≥ 60%

Compound: O=C(NCCc1ccncc1)c1cccc(Nc2ccc(-c3ccccc3)nn2)c1 [Compound 27, 3-[(6-phenylpyridazin-3-yl)amino]-N-[2-(pyridin-4-yl)ethyl]benzamide]
- inhibition at 1 µM: 30 to 60%
- inhibition at 30 µM: ≥ 60%

Compound: O=C(NC1CCOCC1)c1cccc(Nc2ccc(-c3ccccc3)nn2)c1 [Compound 28, N-(oxan-4-yl)-3-[(6-phenylpyridazin-3-yl)amino]benzamide]
- inhibition at 1 µM: < 30%
- inhibition at 30 µM: ≥ 60%

Compound: O=C(NCC1CCOCC1)c1cccc(Nc2ccc(-c3ccccc3)nn2)c1 [Compound 34, N-[(oxan-4-yl)methyl]-3-[(6-phenylpyridazin-3-yl)amino]benzamide]
- inhibition at 1 µM: < 30%
- inhibition at 30 µM: ≥ 60%

Compound: O=C(NCC1COC1)c1cccc(Nc2ccc(-c3ccccc3)nn2)c1 [Compound 35, N-[(oxetan-3-yl)methyl]-3-[(6-phenylpyridazin-3-yl)amino]benzamide]
- inhibition at 1 µM: < 30%
- inhibition at 30 µM: ≥ 60%

Compound: CCNC(=O)c1cccc(Nc2ccc(-c3ccccc3)nn2)c1 [Compound 37, N-ethyl-3-[(6-phenylpyridazin-3-yl)amino]benzamide]
- inhibition at 1 µM: 30 to 60%
- inhibition at 30 µM: ≥ 60%

Compound: Cc1cnnc(Nc2cccc(C(=O)NCc3ccc(C)o3)c2)c1 [Compound 42, N-[(5-methylfuran-2-yl)methyl]-3-[(5-methylpyridazin-3-yl)amino]benzamide]
- inhibition at 30 µM: < 30%

Compound: Cc1ccc(CNC(=O)c2cccc(Nc3ccc(C4CC4)nn3)c2)o1 [Compound 43, 3-[(6-cyclopropylpyridazin-3-yl)amino]-N-[(5-methylfuran-2-yl)methyl]benzamide]
- inhibition at 1 µM: < 30%

Compound: Cc1ccc(Nc2cccc(C(=O)NCc3ccc(C)o3)c2)nn1 [Compound 47, N-[(5-methylfuran-2-yl)methyl]-3-[(6-methylpyridazin-3-yl)amino]benzamide]
- inhibition at 1 µM: < 30%

Compound: Cc1ccc(CNC(=O)c2cccc(Nc3nnccc3C)c2)o1 [Compound 48, N-[(5-methylfuran-2-yl)methyl]-3-[(4-methylpyridazin-3-yl)amino]benzamide]
- inhibition at 1 µM: < 30%

Compound: Cc1ccc(CNC(=O)c2cccc(Nc3ccc(C4CCOCC4)nn3)c2)o1 [Compound 49, N-[(5-methylfuran-2-yl)methyl]-3-{[6-(oxan-4-yl)pyridazin-3-yl]amino}benzamide]
- inhibition at 1 µM: < 30%

Compound: O=C(NCCCc1ccccc1)c1cccc(Nc2ncc(-c3ccccc3)cn2)c1 [Compound 55, N-(3-phenylpropyl)-3-[(5-phenylpyrimidin-2-yl)amino]benzamide]
- inhibition at 1 µM: ≥ 60%

Compound: Cc1ccc(CNC(=O)c2cccc(Nc3ccc(CC(C)C)nn3)c2)o1 [Compound 61, N-[(5-methylfuran-2-yl)methyl]-3-{[6-(2-methylpropyl)pyridazin-3-yl]amino}benzamide]
- inhibition at 1 µM: < 30%

Compound: Cc1ccc(CNC(=O)c2cccc(Nc3ccc(C4CCCC4)nn3)c2)o1 [Compound 62, 3-[(6-cyclopentylpyridazin-3-yl)amino]-N-[(5-methylfuran-2-yl)methyl]benzamide]
- inhibition at 1 µM: < 30%

Compound: CC(C)(C)NC(=O)c1cccc(Nc2ccc(-c3ccccc3)nn2)c1 [Compound 65, N-tert-butyl-3-[(6-phenylpyridazin-3-yl)amino]benzamide]
- inhibition at 1 µM: 30 to 60%

Compound: Cc1ccc(CNC(=O)c2cccc(Nc3ccc(C4CCN(C(=O)OC(C)(C)C)CC4)nn3)c2)o1 [Compound 69, tert-butyl 4-{6-[(3-{[(5-methylfuran-2-yl)methyl]carbamoyl}phenyl)amino]pyridazin-3-yl}piperidine-1-carboxylate]
- inhibition at 1 µM: < 30%

Compound: Cc1ccc(CNC(=O)c2cccc(Nc3ccc(C4CCN(C)CC4)nn3)c2)o1 [Compound 70, N-[(5-methylfuran-2-yl)methyl]-3-{[6-(1-methylpiperidin-4-yl)pyridazin-3-yl]amino}benzamide]
- inhibition at 1 µM: < 30%

Compound: Cc1ccc(CNC(=O)c2cccc(Nc3ccc(C4CCNCC4)nn3)c2)o1 [Compound 71, N-[(5-methylfuran-2-yl)methyl]-3-{[6-(piperidin-4-yl)pyridazin-3-yl]amino}benzamide]
- inhibition at 1 µM: < 30%

Compound: Cc1ccc(CNC(=O)c2cccc(Nc3ccc(-c4c(C)noc4C)nn3)c2)o1 [Compound 72, 3-{[6-(3,5-dimethyl-1,2-oxazol-4-yl)pyridazin-3-yl]amino}-N-[(5-methylfuran-2-yl)methyl]benzamide]
- inhibition at 1 µM: < 30%

Compound: Cc1ccc(CNC(=O)c2cccc(Nc3ccc(CCc4ccccc4)nn3)c2)o1 [Compound 76, N-[(5-methylfuran-2-yl)methyl]-3-{[6-(2-phenylethyl)pyridazin-3-yl]amino}benzamide]
- inhibition at 1 µM: < 30%

Compound: Cc1ccc(CNC(=O)c2cccc(Nc3ccc(CCc4ccc(F)cc4)nn3)c2)o1 [Compound 77, 3-({6-[2-(4-fluorophenyl)ethyl]pyridazin-3-yl}amino)-N-[(5-methylfuran-2-yl)methyl]benzamide]
- inhibition at 1 µM: < 30%

Compound: COc1ccc(CCNC(=O)c2cccc(Nc3ncc(-c4ccccc4)cn3)c2)cc1 [Compound 83, N-[2-(4-methoxyphenyl)ethyl]-3-[(5-phenylpyrimidin-2-yl)amino]benzamide]
- inhibition at 1 µM: 30 to 60%

Compound: CCc1ccc(Nc2cccc(C(=O)NCc3ccc(C)o3)c2)nn1 [Compound 84, 3-[(6-ethylpyridazin-3-yl)amino]-N-[(5-methylfuran-2-yl)methyl]benzamide]
- inhibition at 1 µM: < 30%
